One assay relates to KB. Put plainly: Cytotoxicity against human KB cells. Type of assay: functional, cell-based.
Assay [1] has as its system human gammaherpesvirus 4. Put plainly: Inhibition of TPA-induced EBV early antigen activation at 3.2 uM.
Assay [2] has as its system human gammaherpesvirus 4. Briefly: Inhibition of TPA-induced EBV early antigen activation at 0.32 uM.
Assay [3] deals with human gammaherpesvirus 4. Put plainly: Inhibition of TPA-induced EBV early antigen activation at 16 uM.
The test system of assay [4] is human gammaherpesvirus 4. Put plainly: Inhibition of TPA-induced EBV early antigen activation at 32 uM.
The target of assay [5] is T1, Aromatase (Homo sapiens, UniProt P11511).
T1 sequence (P11511 whole entry): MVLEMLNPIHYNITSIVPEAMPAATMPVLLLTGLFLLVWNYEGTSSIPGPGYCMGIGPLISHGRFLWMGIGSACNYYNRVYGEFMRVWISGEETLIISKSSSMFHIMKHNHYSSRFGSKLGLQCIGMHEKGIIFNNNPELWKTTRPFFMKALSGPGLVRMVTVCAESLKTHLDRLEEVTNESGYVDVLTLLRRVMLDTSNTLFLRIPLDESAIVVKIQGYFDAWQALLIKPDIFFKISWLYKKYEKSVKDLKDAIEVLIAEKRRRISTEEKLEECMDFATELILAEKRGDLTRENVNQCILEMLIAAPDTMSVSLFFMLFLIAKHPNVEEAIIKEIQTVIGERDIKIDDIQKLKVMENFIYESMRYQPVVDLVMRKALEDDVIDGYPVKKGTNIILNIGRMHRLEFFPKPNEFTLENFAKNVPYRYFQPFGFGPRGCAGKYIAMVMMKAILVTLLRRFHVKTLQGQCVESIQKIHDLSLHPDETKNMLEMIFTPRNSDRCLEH
Briefly: Inhibition of human recombinant aromatase at 0.3 uM.

Assay [6] concerns the target T1, Aromatase. Briefly: Inhibition of human recombinant aromatase at 10 uM.
For assay [7], the target named is T1, Aromatase. Briefly: Inhibition of human recombinant aromatase at 3 uM.
Assay [8] deals with T1, Aromatase. Put plainly: Inhibition of human recombinant aromatase at 1 uM.
The target in assay [9] is T1, Aromatase. Put plainly: Inhibition of human recombinant aromatase at 0.6 uM.

pEC50: −log10 of the molar value.

As usually defined, the pEC50 is the EC50 on a negative log10 scale, so that one unit is a factor of ten. Usually inhibition stands for how much of the control response was suppressed.

In the assay on KB, `COC1=C(C(C)C)C(=O)C2=C(C1=O)[C@@]1(C)CCCC(C)(C)[C@@H]1[C@H]2C=O` [TAIWANIAQUINONE] had a pEC50 of 5.36.
Compound `COc1c(O)c2c(c(O)c1C(C)C)[C@@H](C=O)[C@H]1C(C)(C)CCC[C@]21C` [TAIWANIAQUINOL C] showed a pEC50 in the assay on KB of 5.09.
For the compound `CC1=C(/C=C/C(C)=C/C=C/C(C)=C/C=C/C=C(C)/C=C/C=C(C)/C=C/C2=C(C)CCCC2(C)C)C(C)(C)CCC1`, the inhibition with human gammaherpesvirus 4 [1] came to 18%; with human gammaherpesvirus 4 [2], 0%; in the assay on human gammaherpesvirus 4 [3], 66%; with human gammaherpesvirus 4 [4], 91%.
For the compound `N#Cc1ccc(C(c2ccc(C#N)cc2)n2cncn2)cc1` [LETROZOLE], the inhibition at 0.3 µM at Aromatase [5] came out at 81.7%. Also, the inhibition at 10 µM at Aromatase [6] came to 87.9%. For the same compound, the inhibition at 3 µM on Aromatase [7] came out at 87.5%.
In the assay on KB, `COc1c(O)c2c(c(O)c1C(C)C)C(=O)[C@@H]1C(C)(C)C(=O)CC[C@]21C` [TAIWANIAQUINOL F] showed a negative-log EC50 (pEC50) of under 5.00.
Take `CC[C@@H](C)CC[C@H]1[C@@H](C)CC[C@H]2C(C)(C)CCC[C@]12C`: the inhibition stood at 22.2% in the assay with human gammaherpesvirus 4 [1], 4.5% in the assay on human gammaherpesvirus 4 [2], 51.9% with human gammaherpesvirus 4 [3] and 92.3% with human gammaherpesvirus 4 [4].
On to `CC(=O)N1CCN(c2ccc(OCC3COC(Cn4ccnc4)(c4ccc(Cl)cc4Cl)O3)cc2)CC1` (configuration not stated) [KETOCONAZOLE], for which, on Aromatase [5], the inhibition at 0.3 µM is 89.3%. The inhibition at 10 µM at Aromatase [6] is 92.5%. At Aromatase [7], the inhibition at 3 µM is 83.8%.
In turn, `CC(C)C1=C(O)C(=O)C2=C(C1=O)C(C=O)=C1C(C)(C)CCC[C@]21C` [TAIWANIAQUINONE D] had a pEC50 in the assay with KB of 5.14.
For `CC(=O)Oc1c(C(C)C)cc(C=O)c2c1[C@H](OC(C)=O)[C@H]1C(C)(C)CCC[C@]21C` [STANDISHINAL DIACETATE], the inhibition at 1 µM on Aromatase [8] came out at 38.6%. In addition, the inhibition with human gammaherpesvirus 4 [1] was 11.1%; in the assay on human gammaherpesvirus 4 [2], 0%; in the assay on human gammaherpesvirus 4 [3] it was 30.5%; in the assay with human gammaherpesvirus 4 [4], 84.5%.
`COC(=O)[C@H]1C2=C(C(=O)C(O)=C(C(C)C)C2=O)[C@@]2(C)CCCC(C)(C)[C@H]12` [TAIWANIQUINONE E]: in the assay on KB, the negative logarithm of the EC50 (pEC50) was under 5.00.
Compound `COc1c(O)c2c(c(O)c1C(C)C)C(=O)[C@H]1C(C)(C)CCC[C@]21C` [TAIWANIAQUINOL E] gave a pEC50 with KB of under 5.00.
Take `COC1=C(C(C)C)C(=O)C2=C(C1=O)[C@@]1(C)CCCC(C)(C)[C@@H]1C2` [TAIWANIAQUINONE G]: the pEC50 with KB was under 5.00.
Regarding `CC(C)C1=C(O)C(=O)C2=C(C1=O)[C@H](C=O)[C@H]1C(C)(C)CCC[C@]21C` [TAIWANIQUINONE A], in the assay on KB, the pEC50 is 5.16.
`COc1c(O)c2c(c(O)c1C(C)C)C(=O)[C@@H]1C(C)(C)CCC[C@]21C` [TAIWANIAQUINOL B] showed a pEC50 in the assay with KB of under 5.00.
As for `C[C@]12CCC(=O)C(O)=C1CC[C@@H]1[C@@H]2CC[C@]2(C)C(=O)CC[C@@H]12` [FORMESTANE], on Aromatase [9], the inhibition at 0.6 µM was 63.7%.
Take `COc1cc([C@@H]2c3cc4c(cc3[C@@H](O[C@@H]3O[C@@H]5CO[C@@H](C)O[C@H]5[C@H](O)[C@H]3O)[C@H]3COC(=O)[C@H]23)OCO4)cc(OC)c1O` [ETOPOSIDE]: the pEC50 in the assay on KB was 5.96.
`CC(C)c1c(O)c2c(c3c1OCO3)[C@@]1(C)CCCC(C)(C)[C@@H]1[C@H]2C=O` [TAIWANIAQUINOL A] showed a pEC50 in the assay with KB of 5.08.
On the same count and under the same terms, as for `COC1=C(C(C)C)C(=O)C2=C(C1=O)[C@@]1(C)CCCC(C)(C)C1=C2` [TAIWANIAQUINONE H], the figure is under 5.00.
`CC(C)c1cc(C=O)c2c(c1O)[C@H](O)[C@H]1C(C)(C)CCC[C@]21C`: the inhibition in the assay with human gammaherpesvirus 4 [1] is 16.7%; in the assay on human gammaherpesvirus 4 [2] it was 0%; in the assay with human gammaherpesvirus 4 [3] it was 32%; with human gammaherpesvirus 4 [4], 85.9%.
`COc1c(O)c2c(c(O)c1C(C)C)C(C=O)=C1C(C)(C)CCC[C@@]12C` [TAIWANIAQUINOL D] gave a pEC50 in the assay with KB of 5.46.

Source of the values: ChEMBL document CHEMBL1154905, “The taiwaniaquinoids: a review” (J Nat Prod, 2010).
